According to article PMC12040169 (PLOS Biology, 2025):

Assay: in vitro
Details: human, hela cells, % viability

Row | SMILES | viability at 28.5 h, 10 µM [%]
1 | NS(=O)(=O)c1ccc(C(=O)N2CCC3(CCN(C(=O)Cc4c[nH]c5ccccc45)C3)C2)cc1 (centres unmarked) [CBK131425] | 100
2 | O=C(Cc1c[nH]c2ccccc12)N1CCC2(CCN(C(=O)c3ccc4[nH]c(=O)[nH]c4c3)C2)C1 (centres unmarked) [CBK131452] | 90.8
3 | O=C(Cc1c[nH]c2ccccc12)N1CCC2(CCN(C(=O)c3cccnc3)C2)C1 (centres unmarked) [CBK131453] | 80.6
4 | CC(C)C(=O)N1CC2(CCN(CCCCC3NC(=O)NC3=O)CC2)c2ccccc21 (centres unmarked) [CBK131471] | 111
5 | CSCCN1CCC2(CC1)CN(C(=O)C(C)C)c1ccccc12 [CBK131473] | 101
6 | Cc1nc(CN2CCC3(CC2)CN(C(=O)C(C)C)c2ccccc23)cs1 [CBK131476] | 108
7 | CCN1CC2(CCN(Cc3cc(OC)c(OC)c(OC)c3)CC2)c2ccccc21 [CBK131477] | 93.2
8 | CCN1CC2(CCN(CCCn3c(=O)[nH]c4ccccc43)CC2)c2ccccc21 [CBK131483] | 93.7
9 | O=C(CO)N1CC2(CCN(Cc3ccc(OC(F)(F)F)cc3)CC2)c2ccccc21 [CBK131493] | 106
10 | COc1cc(CN2CCC3(CC2)CN(C(=O)CO)c2ccccc23)cc(OC)c1OC [CBK131494] | 94
11 | O=C(CO)N1CC2(CCN(CCc3c[nH]c4ccccc34)CC2)c2ccccc21 [CBK131503] | 98.5
12 | O=C(CO)N1CC2(CCN(CCS(=O)(=O)c3ccccc3)CC2)c2ccccc21 [CBK131505] | 97.9
13 | O=C(CO)N1CC2(CCN(CCCn3c(=O)[nH]c4ccccc43)CC2)c2ccccc21 [CBK131506] | 91.9
14 | O=C(CN1CCC2(CC1)CN(C(=O)CO)c1ccccc12)Nc1ccc(F)c(Cl)c1 [CBK131509] | 92.3
15 | O=C(CO)N1CC2(CCN(Cc3cc(=O)[nH]c(=O)[nH]3)CC2)c2ccccc21 [CBK131510] | 106
16 | COc1ccc(OCCN2CCC3(CC2)CN(C(=O)CO)c2ccccc23)cc1 [CBK131512] | 103
17 | Cc1nc(CN2CCC3(CC2)CN(C(=O)CO)c2ccccc23)cs1 [CBK131523] | 93.5
18 | COc1cc(CN2CCC3(CC2)CN(CCO)c2ccccc23)cc(OC)c1OC [CBK131524] | 94.9
19 | OCCN1CC2(CCN(Cc3cccc(Oc4ccccc4)c3)CC2)c2ccccc21 [CBK131528] | 88.7
20 | CSCCC(=O)N1CCCC2(CCN(C(=O)c3cc(F)c(F)cc3F)C2)C1 (centres unmarked) [CBK131557] | 93.7
21 | Cc1ccc(S(=O)(=O)CC(=O)N2CCCC3(CCN(C(=O)c4cc(F)c(F)cc4F)C3)C2)cc1 (centres unmarked) [CBK131558] | 99
22 | COc1ccc2[nH]cc(CC(=O)N3CCCC4(CCN(C(=O)c5cc(F)c(F)cc5F)C4)C3)c2c1 (centres unmarked) [CBK131562] | 88.6
23 | O=C(c1cncnc1)N1CCCC2(CCN(C(=O)c3cc(F)c(F)cc3F)C2)C1 (centres unmarked) [CBK131564] | 106
24 | O=C(c1ccc2[nH]c(=O)[nH]c2c1)N1CCCC2(CCN(C(=O)c3cc(F)c(F)cc3F)C2)C1 (centres unmarked) [CBK131566] | 106
25 | O=C(O)CCC(=O)N1CCCC2(CCN(C(=O)Cc3c[nH]c4ccccc34)C2)C1 (centres unmarked) [CBK131572] | 91.2
26 | N#Cc1cccc(C(=O)N2CCCC3(CCN(C(=O)Cc4c[nH]c5ccccc45)C3)C2)c1 (centres unmarked) [CBK131581] | 93.4
27 | O=C(Cc1c[nH]c2ccccc12)N1CCC2(CCCN(C(=O)c3cscn3)C2)C1 (centres unmarked) [CBK131590] | 99.1

Row | SMILES | viability at 28.5 h, 10 µM [%]
28 | Cc1ccc(S(=O)(=O)CC(=O)N2CCCC3(CCN(C(=O)Cc4c[nH]c5ccccc45)C3)C2)cc1 (centres unmarked) [CBK131595] | 90.4
29 | COc1cc(C(=O)N2CCCC3(CCN(C(=O)Cc4c[nH]c5ccccc45)C3)C2)cc(OC)c1OC (centres unmarked) [CBK131601] | 96
30 | O=C(Cc1c[nH]c2ccccc12)N1CCC2(CCCN(C(=O)c3c(F)cccc3F)C2)C1 (centres unmarked) [CBK131605] | 85.8
31 | O=C(COc1cccnc1)N1CCCC2(CCN(C(=O)Cc3c[nH]c4ccccc34)C2)C1 (centres unmarked) [CBK131608] | 105
32 | Cc1cn(CC(=O)N2CCCC3(CCN(C(=O)c4ccoc4)C3)C2)c(=O)[nH]c1=O (centres unmarked) [CBK131634] | 104
33 | O=C(c1cccnc1)N1CCCC2(CCN(C(=O)c3ccoc3)C2)C1 (centres unmarked) [CBK131640] | 97
34 | COc1ccc(C(=O)N2CCC3(CCCN(C(=O)Cc4ccc(Cl)c(Cl)c4)C3)C2)cc1OC (centres unmarked) [CBK131654] | 98.1
35 | COc1ccc(C(=O)N2CCC3(CCCN(C(=O)c4ccc5ncccc5c4)C3)C2)cc1OC (centres unmarked) [CBK131656] | 92.4
36 | COc1ccc2[nH]cc(CC(=O)N3CCCC4(CCN(C(=O)c5ccc(OC)c(OC)c5)C4)C3)c2c1 (centres unmarked) [CBK131666] | 81.1
37 | O=C(O)CC1SC(Nc2cccc(Cl)c2)=NC1=O (centres unmarked) [CBK131683] | 105
38 | N#Cc1c(-c2ccccc2)cc(-c2ccccc2)nc1SCC(=O)O [CBK131684] | 92.6
39 | O=C(O)CSc1nnc(-c2ccc3c(c2)OCO3)n1-c1ccccc1 [CBK131690] | 105
40 | COc1ccc(-c2nc(Nc3cccc(C(F)(F)F)c3)sc2CC(=O)O)cc1OC [CBK131693] | 97.9
41 | O=C(CSCc1ccc(Cl)cc1)Nc1ccc(O)cc1C(=O)O [CBK131694] | 97.1
42 | COc1cc(-c2nnc(SCC(=O)O)n2-c2ccccc2)cc(OC)c1OC [CBK131695] | 104
43 | CC(=O)Nc1ccc(NC(=O)CSCc2ccc(Cl)cc2Cl)cc1 [CBK131696] | 96.4
44 | O=C(CCCc1ccccc1)Nc1ccc(O)cc1C(=O)O [CBK131699] | 99.7
45 | O=C(CSCc1ccc(Cl)cc1Cl)Nc1cccc(O)c1 [CBK131702] | 110
46 | Cc1ccc(SCC(=O)Nc2ccc(O)cc2C(=O)O)cc1 [CBK131703] | 118
47 | Cc1c(NC(=O)CSCc2ccc(Cl)cc2Cl)cccc1C(=O)O [CBK131704] | 104
48 | COc1ccc(Nc2nc(-c3ccc(F)cc3)cs2)c(OC)c1 [CBK131705] | 87.5
49 | O=C(CSCc1ccc([N+](=O)[O-])cc1)Nc1ccc(O)cc1C(=O)O [CBK131710] | 89.4
50 | NS(=O)(=O)c1ccc(C(=O)N2CCC3(CCN(C(=O)c4ccoc4)C3)C2)cc1 (centres unmarked) [CBK131736] | 95.2
51 | O=C(c1cncnc1)N1CCC2(CCN(C(=O)c3ccoc3)C2)C1 (centres unmarked) [CBK131755] | 86.2
52 | COc1ccc(C(=O)N2CCC3(CCN(C(=O)Cc4c[nH]cn4)C3)C2)cc1OC (centres unmarked) [CBK131768] | 107
53 | COc1ccc(C(=O)N2CCC3(CCN(C(=O)CC4CCCCC4)C3)C2)cc1OC (centres unmarked) [CBK131770] | 94.7
54 | COc1ccc(C(=O)N2CCC3(CCN(C(=O)c4cccc(C#N)c4)C3)C2)cc1OC (centres unmarked) [CBK131773] | 98.3

Row | SMILES | viability at 28.5 h, 10 µM [%]
55 | COc1ccc(C(=O)N2CCC3(CCN(C(=O)/C=C/c4ccc5c(c4)OCO5)C3)C2)cc1OC (centres unmarked) [CBK131775] | 96.6
56 | COc1ccc(C(=O)N2CCC3(CCN(C(=O)Cc4cc(C)no4)C3)C2)cc1OC (centres unmarked) [CBK131784] | 106
57 | COc1ccc(OC(=O)C2COc3ccccc3O2)cc1 (centres unmarked) [CBK131816] | 100
58 | CS(=O)(=O)c1ccc(Nc2cncc(N3CCC(Sc4ccccn4)CC3)c2C#N)cc1 [CBK131843] | 85.2
59 | CCOC(=O)c1sc2nc(N3CCOCC3)c3c(c2c1N)CCCC3 [CBK131870] | 100
60 | CCc1nc2sc(C(N)=O)c(N)c2c2c1CCCC2 [CBK131872] | 101
61 | COc1ccc(CSc2nc(N)c3c4c(sc3n2)CCCC4)cc1 [CBK131876] | 85.8
62 | COc1ccc(-c2c3c(nc4sc(C(=O)N5CCOCC5)c(N)c24)CC(C)(C)CC3=O)cc1 [CBK131884] | 91.7
63 | O=C(O)CCc1ccc(-c2ccc(F)cc2)n1-c1cc(Cl)ccc1O [CBK131891] | 92
64 | O=C(O)CCc1ccc(-c2ccc(Br)cc2)n1-c1ccccc1O [CBK131892] | 93.9
65 | COc1ccc(-c2ccc(CCC(=O)O)n2-c2ccc(N(C)C)cc2)cc1 [CBK131895] | 110
66 | COc1ccc(CCC(=O)Nc2cccc(-c3ccc(OC4CCNCC4)cc3)c2)cc1OC [CBK131925T] | 100
67 | CS(=O)(=O)c1ccc(Nc2ccc3c(c2)COC2(CCN(C(=O)Cc4ccc(F)cc4F)C2)O3)cc1 (centres unmarked) [CBK131948] | 90.8
68 | O=C(Cc1cc(F)cc(F)c1F)N1CCC(Sc2ccc(-c3ccccc3)cc2)CC1 [CBK131952] | 94.5
69 | O=C(c1ccc2c(c1)CCO2)N1CCC(Sc2ccc(-c3ccccc3)cc2)CC1 [CBK131953] | 94.8
70 | O=C(c1ccc2c(c1)CCO2)N1CCC(S(=O)(=O)c2ccc(-c3ccccc3)cc2)CC1 [CBK131957] | 109
71 | CC(C)(C)OC(=O)N1CCC2(CC1)NC(=O)c1cc(-c3cccc(S(C)(=O)=O)c3)ccc1O2 [CBK131967] | 102
72 | CC(=O)c1cccc(-c2ccc3c(c2)C(=O)NC2(CCN(C(=O)OC(C)(C)C)CC2)O3)c1 [CBK131969] | 95.4
73 | O=C(c1c(F)cc(-c2cncc(-c3ccc(O)cc3)n2)cc1F)N1CCOCC1 [CBK131973] | 90.5
74 | COc1cc(CN2CCCC3(CCN(C(=O)c4cc(F)c(F)cc4F)C3)C2)cc(OC)c1OC (centres unmarked) [CBK131988] | 101
75 | O=C(c1cc(F)c(F)cc1F)N1CCC2(CCCN(Cc3ccc(Cl)c(Cl)c3)C2)C1 (centres unmarked) [CBK131990] | 95.1
76 | N#Cc1cccc(CN2CCCC3(CCN(C(=O)c4cc(F)c(F)cc4F)C3)C2)c1 (centres unmarked) [CBK131993] | 100
77 | O=C(c1cc(F)c(F)cc1F)N1CCC2(CCCN(CCS(=O)(=O)c3ccccc3)C2)C1 (centres unmarked) [CBK132003] | 105
78 | O=C(c1cc(F)c(F)cc1F)N1CCC2(CCCN(CCCn3c(=O)[nH]c4ccccc43)C2)C1 (centres unmarked) [CBK132004] | 84.9
79 | O=C1NC(=O)C(CCCCN2CCCC3(CCN(C(=O)c4cc(F)c(F)cc4F)C3)C2)N1 (centres unmarked) [CBK132020] | 97.5

Same assay, conditions: human, hela cells, % viability, bulk resorufin, single well

Row | SMILES | viability at 28.5 h, 10 µM [%]
80 | CCOC(=O)N1CCC2(CC1)OCc1ccc(C#N)cc1O2 [CBK131679] | 97.2
